# Assay results reported in patent EP0978517A2, “Triazolopurines, process for their preparation and their use as medicaments” (Boehringer Ingelheim Pharma KG, priority 1996, dated 1998).
# How the values were obtained:
# [1] = target: T1, human A1 adenosine Receptor (Homo sapiens, UniProt P30542); test: A1 receptor binding, determined in analogy to Ensinger et al. (Table 20); details: Rezeptorbindungswerte, Tabelle 20, read-out: KiA1
# T1 sequence (P30542 1-326): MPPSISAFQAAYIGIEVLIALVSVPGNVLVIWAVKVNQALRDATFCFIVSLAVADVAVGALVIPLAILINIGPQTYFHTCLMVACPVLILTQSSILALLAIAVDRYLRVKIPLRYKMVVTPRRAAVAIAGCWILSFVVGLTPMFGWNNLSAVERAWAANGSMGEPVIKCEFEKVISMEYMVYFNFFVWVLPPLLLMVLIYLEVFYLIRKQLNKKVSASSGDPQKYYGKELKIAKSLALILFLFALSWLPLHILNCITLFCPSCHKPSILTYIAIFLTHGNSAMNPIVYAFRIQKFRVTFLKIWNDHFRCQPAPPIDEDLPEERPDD
# Text: Die ermittelten A1-Rezeptorbindungswerte wurden in Analogie zu Ensinger et al. in "Cloning and functional characterisation of human A1 adenosine Receptor - Biochemical and Biophysical Communications, Vol 187, No. 2, 919-926, 1992" bestimmt und sind in Tabelle 20 zusammengefaßt.
# (§1) Die nachfolgende Tabelle enthält KiA1 (human) und KiA2 (Ratte) Rezeptorbindungswerte. Tabelle 20
# [2] = target: A2-Rezeptor (Rattus norvegicus, UniProt P30543); test: A2 receptor binding (Table 20); details: Ratte; Rezeptorbindungswerte, Tabelle 20; read-out: KiA2
# Text: as §1
# [3] = target: T2, human A3-adenosine receptor (Homo sapiens, UniProt P0DMS8); test: A3 receptor binding, determined in analogy to Salvatore et al. (Table 21); details: Rezeptorbindungswerte, Tabelle 21, read-out: KiA3
# T2 sequence (P0DMS8 1-318): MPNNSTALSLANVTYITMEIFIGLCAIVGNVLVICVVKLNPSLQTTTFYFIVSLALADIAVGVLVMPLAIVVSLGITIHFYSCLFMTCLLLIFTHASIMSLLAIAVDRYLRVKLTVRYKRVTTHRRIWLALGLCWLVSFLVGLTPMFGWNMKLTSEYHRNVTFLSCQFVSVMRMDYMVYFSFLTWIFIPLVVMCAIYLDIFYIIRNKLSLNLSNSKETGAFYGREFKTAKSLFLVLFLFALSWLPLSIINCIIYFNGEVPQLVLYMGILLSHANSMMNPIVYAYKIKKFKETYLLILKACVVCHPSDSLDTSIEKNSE
# Text: Die in Tabelle 21 zusammengefassten A3-Rezeptorbindungswerte wurden in Analogie zu Salvatore et al. "Molecular cloning and characterization of the human A3-adenosine receptor" (Proc. Natl. Acad. Sci. USA 90, 10365-10369, 1993) ermittelt.
# Die nachfolgende Tabelle enthält KiA3 (human) Rezeptorbindungswerte. Tabelle 21
# Chain of A2-Rezeptor (P30543 whole entry): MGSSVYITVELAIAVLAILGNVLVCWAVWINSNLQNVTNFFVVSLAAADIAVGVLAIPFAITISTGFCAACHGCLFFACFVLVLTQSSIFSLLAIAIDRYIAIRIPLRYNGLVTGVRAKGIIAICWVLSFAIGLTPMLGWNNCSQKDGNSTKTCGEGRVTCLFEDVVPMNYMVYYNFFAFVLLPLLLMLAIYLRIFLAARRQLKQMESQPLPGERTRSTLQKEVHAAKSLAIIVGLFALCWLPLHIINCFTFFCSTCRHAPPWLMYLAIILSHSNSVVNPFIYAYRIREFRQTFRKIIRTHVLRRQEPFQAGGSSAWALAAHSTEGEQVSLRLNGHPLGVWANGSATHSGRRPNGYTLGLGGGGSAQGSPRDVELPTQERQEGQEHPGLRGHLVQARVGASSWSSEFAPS
Ki [1],Ki [2],Ki [3],Structure (SMILES)
6.4 nM,307 nM,–,CCCn1c2nc(C3CCCC3)[nH]c2c(=O)n2nc(C(C)C)nc12 [Beispiel 37]
–,–,5.3 nM,CCc1nc2c([nH]1)c(=O)n1nc(CCc3ccccc3)nc1n2CC [compound 78]
8.3 nM,345 nM,–,CCCCn1c2nc(C3CCCC3)[nH]c2c(=O)n2nc(Cc3ccccc3)nc12 [Beispiel 11]
10.3 nM,1230 nM,26 nM,CCCCCn1c2nc(C3CCCC3)[nH]c2c(=O)n2nc(Cc3ccccc3)nc12 [Beispiel 25]
11.4 nM,4460 nM,–,CCCn1c2nc(C3CCCC3)[nH]c2c(=O)n2nc(-c3ccco3)nc12 [Beispiel 48]
–,–,30 nM,CCn1c2nc(C(C)(C)C)[nH]c2c(=O)n2nc(Cc3ccccc3)nc12 [compound 68]
–,–,2 nM,CCCn1c2nc(CC)[nH]c2c(=O)n2nc(Cc3ccccc3)nc12 [Beispiel 6]
–,–,2 nM,CCCn1c2nc(CC)[nH]c2c(=O)n2nc(C3CCCC3)nc12 [Beispiel 23]
81.5 nM,3290 nM,–,CCn1c2nc(C3CCCC3)[nH]c2c(=O)n2ncnc12 [Beispiel 30]
8.1 nM,158 nM,–,CCCc1nc2c([nH]1)c(=O)n1nc(Cc3ccccc3)nc1n2CCC [Beispiel 7]
1.9 nM,363 nM,–,Cn1c2nc(C3CCCC3)[nH]c2c(=O)n2nc(Cc3ccccc3)nc12 [Beispiel 8]
–,–,20 nM,O=c1c2[nH]c(C3CCCC3)nc2n(Cc2ccccc2)c2nc(Cc3ccccc3)nn12 [Beispiel 12]
–,–,3.8 nM,O=c1c2[nH]cnc2[nH]c2nc(C3CCCC3)nn12 [Beispiel 19]
–,–,2.3 nM,CCCCn1c2nc[nH]c2c(=O)n2nc(Cc3ccccc3)nc12 [Beispiel 4]
5.2 nM,82 nM,–,CCCn1c2nc(N3CCOCC3)[nH]c2c(=O)n2nc(Cc3ccccc3)nc12 [Beispiel 13]
6.4 nM,532 nM,22 nM,CCCCc1nc2n(CCC)c3nc(C4CCCC4)[nH]c3c(=O)n2n1 [Beispiel 38]
5.8 nM,731 nM,–,CCCc1nc2n(CCC)c3nc(C4CCCC4)[nH]c3c(=O)n2n1 [Beispiel 36]
1.7 nM,730 nM,–,CCCn1c2nc(C3CCCC3)[nH]c2c(=O)n2nc(Cc3ccccc3)nc12 [Beispiel 10]
–,–,25 nM,CCc1nc2c([nH]1)c(=O)n1nc(COc3ccc(OC)cc3)nc1n2CC [compound 82]
6 nM,539 nM,–,CCCn1c2nc(C3CCCC3)[nH]c2c(=O)n2nc(C(C)(C)C)nc12 [Beispiel 39]
1.4 nM,422 nM,–,CCn1c2nc(C3CCCC3)[nH]c2c(=O)n2nc(Cc3ccccc3)nc12 [Beispiel 9]
–,–,3 nM,CCCn1c2nc(N(C)C)[nH]c2c(=O)n2nc(Cc3ccccc3)nc12 [compound 65]
–,–,4.7 nM,CCCn1c2nc[nH]c2c(=O)n2nc(Cc3ccccc3)nc12 [Beispiel 3]
